Source: patent US12673945B2, “3-((8-((1H-pyrazol-4-yl)amino)imidazo[1,2-a]pyridin-3-yl)ethinyl)-n-phenylbenzamide derivative, method for preparing same, and pharmaceutical composition containing same as active ingredient for prevention or treatment of cancer” (DAEGU-GYEONGBUK MEDICAL INNOVATION FOUNDATION, priority 2020, dated 2026)

Columns and labels:
Format in all cases: cell-based
[1] = tested on: T315I-KOPM28 cells; experiment: human CML cell proliferation inhibition; details: 72 hours, Cell Counting Kit-8
Method: (§1) In order to evaluate the therapeutic effect of the compound according to the present invention on chronic myelogenous leukemia (CML), the following experiment was performed, and the results are shown in Table 6 below. Inhibitory activity to Bcr-Abl kinase was evaluated through the experiment using TCCS and KOPM28 cells, and inhibitory activity to T315I-Bcr-Abl kinase was evaluated through the experiment using T315I-TCCS and T315I-KOPM28 cells.
(§2) Human chronic myelogenous leukemia (CML) cells used in the experiment were TCCS, T315I-TCCS, KOPM28 and T315I-KOPM28, and the four types of cells were provided by University of Yamanashi.
(§3) Four types of human CML cells were each seeded in 96-well plates at the density of 1×10^4/90 μL/well. A culture solution containing 9 concentrations (0.000256 to 100 μM) of each example compound serially diluted in 5 folds or DMSO (control) were added to the plate (10 μL/well) to a final concentration of 0 to 10 μM. The plate was incubated in a 37° C. CO2 incubator for 72 hours.
(§4) After incubation for 72 hours, the plate treated with the compound was treated with Cell Counting Kit-8 (Dojindo Molecular Technologies, Inc) solution at the concentration of 10 μL/well, and then mixed well. Then, the plate was incubated in a CO2 incubator at 37° C. for 2 hours, and absorbance at 450 nm was measured with a microplate reader. Data were expressed as percentage compared to vehicle treated cells and GI50 values were calculated using GraphPad Prism 8.0 (GraphPad software Inc., San Diego).

[2] = tested on: T315I-TCCS cells; experiment: human CML cell proliferation inhibition; details: 72 hours, Cell Counting Kit-8
Method: as §1, §2, §3, §4

[3] = tested on: KOPM28 cells; experiment: human CML cell proliferation inhibition; details: 72 hours, Cell Counting Kit-8
Method: as §1, §2, §3, §4

[4] = tested on: TCCS cells; experiment: human CML cell proliferation inhibition; details: 72 hours, Cell Counting Kit-8
Method: as §1, §2, §3, §4

[5] = tested on: Parental (Ba/F3); experiment: Ba/F3 cell proliferation inhibition; details: BaF3; 72 hours, Cell Counting Kit-8
Method: as §3, with “[…] lymphocyte cells, Parental (Ba/F3) and T315I-Bcr-Abl (Ba/F3)” for “Four types of human CML cells”, “were” for “were each”, “(0.015” for “(0.000256”, “3” for “5”, “[…])” for “μL/well)”
as §4, with “5.0” for “8.0”, “Diego) […].” for “Diego).”

[6] = tested on: T315I-Bcr-Abl (Ba/F3); experiment: Ba/F3 cell proliferation inhibition; details: BaF3; 72 hours, Cell Counting Kit-8
Method: as §3, with “[…] lymphocyte cells, Parental (Ba/F3) and T315I-Bcr-Abl (Ba/F3)” for “Four types of human CML cells”, “were” for “were each”, “(0.015” for “(0.000256”, “3” for “5”, “[…])” for “μL/well)”
as §4, with “5.0” for “8.0”, “Diego) […].” for “Diego).”

| SMILES | GI50 [1] [nM] | GI50 [2] [nM] | GI50 [3] [nM] | GI50 [4] [nM] | GI50 [5] [nM] | GI50 [6] [nM] |
| --- | --- | --- | --- | --- | --- | --- |
| Cc1cc(F)c(C(=O)Nc2cc(N3CCC(N4CCN(C)CC4)CC3)cc(C(C)(C)C#N)c2)cc1C#Cc1cnc2c(Nc3cnn(C)c3)cccn12 [Example 25, N-(3-(2-cyanopropan-2-yl)-5-(4-(4-methylpiperazin-1-yl)piperidin-1-yl)phenyl)-2-fluoro-4-methyl-5-((8-((1-methyl-1H-pyrazol-4-yl)amino)imidazo[1,2-a]pyridin-3-yl)ethynyl)benzamide] | 100 | > 100 | < 10 | < 10 | 500 to 5000 | 50 to 500 |
| Cc1cc(F)c(C(=O)Nc2cc(Oc3ccncc3)cc(C(C)(C)C#N)c2)cc1C#Cc1cnc2c(Nc3cnn(C)c3)cccn12 [Example 26, N-(3-(2-cyanopropan-2-yl)-5-(pyridin-4-yloxy)phenyl)-2-fluoro-4-methyl-5-((8-((1-methyl-1H-pyrazol-4-yl)amino)imidazo[1,2-a]pyridin-3-yl)ethynyl)benzamide] | 100 | < 10 | < 10 | < 10 | > 5000 | < 50 |
| Cc1cc(F)c(C(=O)Nc2cc(CN3CCN(C)CC3)cc(C(C)(C)C#N)c2)cc1C#Cc1cnc2c(Nc3cnn(C)c3)cccn12 [Example 27, N-(3-(2-cyanopropan-2-yl)-5-((4-methylpiperazin-1-yl)methyl)phenyl)-2-fluoro-4-methyl-5-((8-((1-methyl-1H-pyrazol-4-yl)amino)imidazo[1,2-a]pyridin-3-yl)ethynyl)benzamide] | 100 | 100 | < 10 | < 10 | 500 to 5000 | < 50 |
| Cc1cc(F)c(C(=O)Nc2cc(CN3CCOCC3)cc(C(C)(C)C#N)c2)cc1C#Cc1cnc2c(Nc3cnn(C)c3)cccn12 [Example 28, N-(3-(2-cyanopropan-2-yl)-5-(morpholinomethyl)phenyl)-2-fluoro-4-methyl-5-((8-((1-methyl-1H-pyrazol-4-yl)amino)imidazo[1,2-a]pyridin-3-yl)ethynyl)benzamide] | > 100 | > 100 | < 10 | < 10 | > 5000 | 50 to 500 |
| Cc1cc(F)c(C(=O)Nc2cc(CN3CCC(N(C)C)C3)cc(C(C)(C)C#N)c2)cc1C#Cc1cnc2c(Nc3cnn(C)c3)cccn12 (stereo not drawn) [Example 29, N-(3-(2-cyanopropan-2-yl)-5-((3-(dimethylamino)pyrrolidin-1-yl)methyl)phenyl)-2-fluoro-4-methyl-5-((8-((1-methyl-1H-pyrazol-4-yl)amino)imidazo[1,2-a]pyridin-3-yl)ethynyl)benzamide] | 100 | 100 | < 10 | < 10 | 500 to 5000 | 50 to 500 |
| Cc1cc(F)c(C(=O)Nc2cc(CN3CCCN(C)CC3)cc(C(C)(C)C#N)c2)cc1C#Cc1cnc2c(Nc3cnn(C)c3)cccn12 [Example 30, N-(3-(2-cyanopropan-2-yl)-5-((4-methyl-1,4-diazepan-1-yl)methyl)phenyl)-2-fluoro-4-methyl-5-((8-((1-methyl-1H-pyrazol-4-yl)amino)imidazo[1,2-a]pyridin-3-yl)ethynyl)benzamide] | > 100 | 100 | < 10 | < 10 | 500 to 5000 | 50 to 500 |
| Cc1cc(F)c(C(=O)Nc2cc(CN3CCC(C(F)(F)F)CC3)cc(C(C)(C)C#N)c2)cc1C#Cc1cnc2c(Nc3cnn(C)c3)cccn12 [Example 31, N-(3-(2-cyanopropan-2-yl)-5-((4-(trifluoromethyl)piperidin-1-yl)methyl)phenyl)-2-fluoro-4-methyl-5-((8-((1-methyl-1H-pyrazol-4-yl)amino)imidazo[1,2-a]pyridin-3-yl)ethynyl)benzamide] | > 100 | > 100 | < 10 | < 10 | > 5000 | 50 to 500 |
